From patent US6737383B1, “Herbicidal oxadiazolidines” (priority 1999, dated 2004)

Tests used:
blackgrass = assay: Test B pre/postemergence blackgrass; assay type: in vivo, Alopecurus myosuroides
Summary of the method: (§1)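 Response is a visual 0-to-10 score relative to untreated plants, where 0 means no effect and 10 means complete control, taken twelve to sixteen days after application. Treatments went onto soil at planting and onto foliage of 1- to 4-leaf plants, using a surfactant-containing non-phytotoxic solvent.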

surinam grass = assay: Test B pre/postemergence surinam grass; assay type: in vivo, Brachiaria decumbens
Summary of the method: as §1

cocklebur = assay: Test B pre/postemergence cocklebur; assay type: in vivo, Xanthium strumarium
Summary of the method: as §1

corn = assay: Test B pre/postemergence corn; assay type: in vivo, Zea mays
Summary of the method: as §1

crabgrass = assay: Test B pre/postemergence crabgrass; assay type: in vivo, Digitaria sanguinalis
Summary of the method: as §1

giant foxtail = assay: Test B pre/postemergence giant foxtail; assay type: in vivo, Setaria faberii
Summary of the method: as §1

morningglory = assay: Test B pre/postemergence morningglory; assay type: in vivo, Ipomoea hederacea
Summary of the method: as §1

pigweed = assay: Test B pre/postemergence pigweed; assay type: in vivo, Amaranthus retroflexus
Summary of the method: as §1

rape = assay: Test B pre/postemergence rape; assay type: in vivo, Brassica napus
Summary of the method: as §1

soybean = assay: Test B pre/postemergence soybean; assay type: in vivo, Glycine max
Summary of the method: as §1

sugar beet = assay: Test B pre/postemergence sugar beet; assay type: in vivo, Beta vulgaris
Summary of the method: as §1

velvetleaf = assay: Test B pre/postemergence velvetleaf; assay type: in vivo, Abutilon theophrasti
Summary of the method: as §1

wheat = assay: Test B pre/postemergence wheat; assay type: in vivo, Triticum aestivum
Summary of the method: as §1

wild oat = assay: Test B pre/postemergence wild oat; assay type: in vivo, Avena fatua
Summary of the method: as §1

purple nutsedge = assay: Test B pre/postemergence purple nutsedge; assay type: in vivo, Cyperus rotundus
Summary of the method: as §1

rice = assay: Test B flood test rice; assay type: in vivo, Oryza sativa
Summary of the method: (§2)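 Flood test on plants grown to the 2-leaf stage; treated plants kept in greenhouse twelve to sixteen days, then visually rated against controls on a 0 (no effect) to 10 (complete control) scale.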

smallflower flatsedge = assay: Test B flood test smallflower flatsedge; assay type: in vivo, Cyperus difformis
Summary of the method: as §2

duck salad = assay: Test B flood test duck salad; assay type: in vivo, Heteranthera limosa
Summary of the method: as §2

bamyardgrass = assay: Test B flood test barnyardgrass; assay type: in vivo, Echinochloa crus-galli
Summary of the method: as §2

[1] = Postemergence, Rate 250 g/ha, scale 0 to 10
[2] = Postemergence, Rate 500 g/ha, scale of 0 to 10 where 0 is no effect and 10 is complete control
[3] = Preemergence, Rate 62 g/ha, scale 0 to 10 (0 no effect, 10 complete control)
[4] = Preemergence, Rate 125 g/ha, scale of 0 to 10 where 0 is no effect and 10 is complete control
[5] = Preemergence, Rate 250 g/ha, scale 0 to 10, 0 is no effect, 10 is complete control
[6] = Preemergence, Rate 500 g/ha, scale 0 to 10, 0 is no effect, 10 is complete control
[7] = Rate 62 g/ha, Postemergence, scale of 0 to 10 where 0 is no effect and 10 is complete control
[8] = Rate 125 g/ha, Postemergence, scale 0 to 10, 0 is no effect, 10 is complete control
[9] = Postemergence block (flood test species), Rate 250 g/ha, scale 0 to 10
[10] = Postemergence section (flood test species), Rate 500 g/ha, scale of 0 to 10 where 0 is no effect and 10 is complete control
[11] = Rate 125 g/ha, Postemergence section (flood test species), scale 0 to 10, 0 is no effect, 10 is complete control
[12] = Rate 62 g/ha, Postemergence (flood test species), scale of 0 to 10 where 0 is no effect and 10 is complete control

In the case of `CC(C)N(C(=O)n1oc(=O)n(C(C)C#N)c1=O)c1ccc(F)cc1F` (centres unmarked) [Compound 432], the “Blackgrass plant response rating” value (blackgrass; [1]) was 4, the “Blackgrass plant response rating” value (blackgrass; [2]) was 4 and the “Plant response rating, Blackgrass” value (blackgrass; [3]) was 0. The “Plant response rating, Blackgrass” value (blackgrass; [4]) was 0, the “Blackgrass plant response rating” value (blackgrass; [5]) was 0 and the “Blackgrass plant response rating” value (blackgrass; [6]) was 2. The “Blackgrass plant response rating” value (blackgrass; [7]) was 0, the “Blackgrass plant response rating” value (blackgrass; [8]) was 2 and the “B. signalgrass plant response rating” value (surinam grass; Postemergence, Rate 250 g/ha, scale 0 to 10, 0 no effect, 10 complete control) was 0. The “B. signalgrass plant response rating” value (surinam grass; [2]) was 0, the “Plant response rating, B. signalgrass” value (surinam grass; [3]) was 0 and the “Plant response rating, B. signalgrass” value (surinam grass; [4]) was 0. The “B. signalgrass plant response rating” value (surinam grass; [5]) was 0, the “B. signalgrass plant response rating” value (surinam grass; [6]) was 0 and the “B. signalgrass plant response rating” value (surinam grass; [7]) was 0. The “B. signalgrass plant response rating” value (surinam grass; [8]) was 0, the “Cocklebur plant response rating” value (cocklebur; [1]) was 0 and the “Cocklebur plant response rating” value (cocklebur; [2]) was 0. For the same compound, the “Plant response rating, Cocklebur” value (cocklebur; [3]) was 0, the “Plant response rating, Cocklebur” value (cocklebur; [4]) was 0 and the “Cocklebur plant response rating” value (cocklebur; [5]) was 0. For the same compound, the “Cocklebur plant response rating” value (cocklebur; [6]) was 0, the “Cocklebur plant response rating” value (cocklebur; [7]) was 0 and the “Cocklebur plant response rating” value (cocklebur; [8]) was 0. For the same compound, the “Corn plant response rating” value (corn; [1]) was 0, the “Corn plant response rating” value (corn; [2]) was 0 and the “Plant response rating, Corn” value (corn; [3]) was 0. The “Plant response rating, Corn” value (corn; [4]) was 0, the “Corn plant response rating” value (corn; [5]) was 0 and the “Corn plant response rating” value (corn; [6]) was 0. The “Corn plant response rating” value (corn; [7]) was 0, the “Corn plant response rating” value (corn; [8]) was 0 and the “Crabgrass plant response rating” value (crabgrass; [1]) was 6. For the same compound, the “Crabgrass plant response rating” value (crabgrass; [2]) was 6, the “Plant response rating, Crabgrass” value (crabgrass; [3]) was 3 and the “Plant response rating, Crabgrass” value (crabgrass; [4]) was 5. For the same compound, the “Crabgrass plant response rating” value (crabgrass; [5]) was 8, the “Crabgrass plant response rating” value (crabgrass; [6]) was 9 and the “Crabgrass plant response rating” value (crabgrass; [7]) was 0. For the same compound, the “Crabgrass plant response rating” value (crabgrass; [8]) was 0, the “Giant foxtail plant response rating” value (giant foxtail; [1]) was 6 and the “Giant foxtail plant response rating” value (giant foxtail; [2]) was 8. The “Plant response rating, Giant foxtail” value (giant foxtail; [3]) was 0, the “Plant response rating, Giant foxtail” value (giant foxtail; [4]) was 2 and the “Giant foxtail plant response rating” value (giant foxtail; [5]) was 6. For the same compound, the “Giant foxtail plant response rating” value (giant foxtail; [6]) was 9, the “Giant foxtail plant response rating” value (giant foxtail; [7]) was 0 and the “Giant foxtail plant response rating” value (giant foxtail; [8]) was 3. The “Morningglory plant response rating” value (morningglory; [1]) was 1, the “Morningglory plant response rating” value (morningglory; [2]) was 2 and the “Plant response rating, Morningglory” value (morningglory; [3]) was 0. The “Plant response rating, Morningglory” value (morningglory; [4]) was 0, the “Morningglory plant response rating” value (morningglory; [5]) was 0 and the “Morningglory plant response rating” value (morningglory; [6]) was 0. For the same compound, the “Morningglory plant response rating” value (morningglory; [8]) was 1, the “Redroot pigweed plant response rating” value (pigweed; [1]) was 0 and the “Redroot pigweed plant response rating” value (pigweed; [2]) was 0. For the same compound, the “Plant response rating, Redroot pigweed” value (pigweed; [3]) was 0, the “Plant response rating, Redroot pigweed” value (pigweed; [4]) was 0 and the “Redroot pigweed plant response rating” value (pigweed; [5]) was 0. The “Redroot pigweed plant response rating” value (pigweed; [6]) was 0, the “Redroot pigweed plant response rating” value (pigweed; [8]) was 0 and the “Rape plant response rating” value (rape; [1]) was 0. The “Rape plant response rating” value (rape; [2]) was 0, the “Plant response rating, Rape” value (rape; [3]) was 0 and the “Plant response rating, Rape” value (rape; [4]) was 0. For the same compound, the “Rape plant response rating” value (rape; [5]) was 0, the “Rape plant response rating” value (rape; [6]) was 0 and the “Rape plant response rating” value (rape; [8]) was 0. The “Soybean plant response rating” value (soybean; [1]) was 2, the “Soybean plant response rating” value (soybean; [2]) was 2 and the “Plant response rating, Soybean” value (soybean; [3]) was 0. The “Plant response rating, Soybean” value (soybean; [4]) was 0, the “Soybean plant response rating” value (soybean; [5]) was 0 and the “Soybean plant response rating” value (soybean; [6]) was 0. For the same compound, the “Soybean plant response rating” value (soybean; [8]) was 1, the “Sugarbeets plant response rating” value (sugar beet; [1]) was 0 and the “Sugarbeets plant response rating” value (sugar beet; [2]) was 0. For the same compound, the “Plant response rating, Sugarbeets” value (sugar beet; [3]) was 0, the “Plant response rating, Sugarbeets” value (sugar beet; [4]) was 0 and the “Sugarbeets plant response rating” value (sugar beet; [5]) was 0. The “Sugarbeets plant response rating” value (sugar beet; [6]) was 0, the “Sugarbeets plant response rating” value (sugar beet; [8]) was 0 and the “Velvetleaf plant response rating” value (velvetleaf; [1]) was 0. The “Velvetleaf plant response rating” value (velvetleaf; [2]) was 2, the “Plant response rating, Velvetleaf” value (velvetleaf; [3]) was 0 and the “Plant response rating, Velvetleaf” value (velvetleaf; [4]) was 0. For the same compound, the “Velvetleaf plant response rating” value (velvetleaf; [5]) was 0, the “Velvetleaf plant response rating” value (velvetleaf; [6]) was 0 and the “Velvetleaf plant response rating” value (velvetleaf; [8]) was 0. The “Wheat plant response rating” value (wheat; [1]) was 0, the “Wheat plant response rating” value (wheat; [2]) was 0 and the “Plant response rating, Wheat” value (wheat; [3]) was 0. For the same compound, the “Plant response rating, Wheat” value (wheat; [4]) was 0, the “Wheat plant response rating” value (wheat; [5]) was 0 and the “Wheat plant response rating” value (wheat; [6]) was 0. The “Wheat plant response rating” value (wheat; [8]) was 0, the “Wild oats plant response rating” value (wild oat; [1]) was 0 and the “Wild oats plant response rating” value (wild oat; [2]) was 3. For the same compound, the “Plant response rating, Wild oats” value (wild oat; [3]) was 0, the “Plant response rating, Wild oats” value (wild oat; [4]) was 0 and the “Wild oats plant response rating” value (wild oat; [5]) was 0. For the same compound, the “Wild oats plant response rating” value (wild oat; [6]) was 0, the “Wild oats plant response rating” value (wild oat; [8]) was 0 and the “Nutsedge plant response rating” value (purple nutsedge; [1]) was 0. For the same compound, the “Nutsedge plant response rating” value (purple nutsedge; [2]) was 0, the “Plant response rating, Nutsedge” value (purple nutsedge; [3]) was 0 and the “Plant response rating, Nutsedge” value (purple nutsedge; [4]) was 0. The “Nutsedge plant response rating” value (purple nutsedge; [5]) was 0, the “Nutsedge plant response rating” value (purple nutsedge; [6]) was 0 and the “Nutsedge plant response rating” value (purple nutsedge; [8]) was 0. For the same compound, the “Rice plant response rating” value (rice; [9]) was 0, the “Rice plant response rating” value (rice; [10]) was 0 and the “Rice plant response rating” value (rice; [11]) was 0. For the same compound, the “S. Flatsedge plant response rating” value (smallflower flatsedge; [9]) was 0, the “S. Flatsedge plant response rating” value (smallflower flatsedge; [10]) was 0 and the “S. Flatsedge plant response rating” value (smallflower flatsedge; [11]) was 0. For the same compound, the “Ducksalad plant response rating” value (duck salad; [9]) was 0, the “Ducksalad plant response rating” value (duck salad; [10]) was 0 and the “Ducksalad plant response rating” value (duck salad; [12]) was 0. The “Ducksalad plant response rating” value (duck salad; [11]) was 0, the “Barnyardgrass plant response rating” value (bamyardgrass; [9]) was 0 and the “Barnyardgrass plant response rating” value (bamyardgrass; [10]) was 0. The “Barnyardgrass plant response rating” value (bamyardgrass; [12]) was 0 and the “Barnyardgrass plant response rating” value (bamyardgrass; [11]) was 0.
